# Source: patent US20080108582A1, “Methods And Compositions For Combinatorial Approaches To Cancer Gene Therapy” (priority 2003, published 2008)
# Entries after “also recorded” stand apart in the source; their conditions may differ.
# Legend:
# [1] = system: p53-RE (p53C#18) in wild type mouse embryonic fibroblasts; experiment: p53 response element luciferase assay with cisplatin; format: cell-based; settings: wild type MEF; increasing concentrations at the time of transfection
# Protocol: FIG. 12. Treatment with cisplatin enhances activity of p53-RE in cells with wild type p53. Wild type and p53−/− mouse embryonic fibroblasts (MEF) were transfected with p53C#18 as described above. Increasing concentrations of cisplatin were added at the time of transfection. Luciferase assay was performed 36-48 hours later and transfection efficiency was normalized.
# To determine whether treatment with cisplatin (which increases steady-state level of p53 protein) can enhance activity of the p53-RE in normal cells, wild type and p53−/− mouse embryonic fibroblasts were treated with increasing concentrations of cisplatin at the time of transfection (FIG. 12).
# mouse model = settings: 100 mg/kg, intra-peritoneal; cited from earlier work
# MDA-MB-231 cells = experiment: MTS cytotoxicity assay; format: cell-based, Human; settings: increasing concentrations of recombinant TRAIL, 48 hours
# Protocol: (§1) MTS cytotoxicity assay. Cells were plated 2×10^4 per well in triplicate wells and incubated overnight. […] Cytotoxicity was assessed using a CellTiter 96 Non-Radioactive Cell Proliferation Assay and medium background was subtracted. Results are presented as percent of HBSS-treated control.
# CAMA-1 cells = experiment: MTS cytotoxicity assay; format: cell-based, Human; settings: increasing concentrations of recombinant TRAIL, 48 hours
# Protocol: as §1
# HCC 1937 cells [2] = experiment: MTS cytotoxicity assay; format: cell-based, Human
# Protocol: (§2) MTS cytotoxicity assay. Cells were plated 2×10^4 per well in triplicate wells and incubated overnight. Serial dilutions of soluble TRAIL in Hank's balanced salt solution (HBSS) were added to the wells and cells were incubated for an additional 36 hours. Cytotoxicity was assessed using a CellTiter 96 Non-Radioactive Cell Proliferation Assay and medium background was subtracted. Results are presented as percent of HBSS-treated control.
# MCF-7 cells [3] = experiment: MTS cytotoxicity assay; format: cell-based, Human
# Protocol: as §2
# HCC 1937 cells [4] = experiment: Annexin V determination by flow cytometry; format: cell-based, Human; settings: 100 ng of TRAIL for 36 hours
# Protocol: (§3) Annexin V determination. 1×10^6 cells were plated per 60 mm dish and cultured overnight. Cells were than left untreated or treated with soluble TRAIL (100 ng/ml) and incubated for additional 36 hours. Cells were than trypsinized and washed with 1× Binding Buffer. For each condition, half of the cell suspension was left untreated and another half was incubated for 15 minutes at room temperature in the dark with Annexin V. Immediately after staining, cells were analyzed by flow cytometry.
# MCF-7 cells [5] = experiment: Annexin V determination by flow cytometry; format: cell-based, Human; settings: 100 ng of TRAIL for 36 hours
# Protocol: as §3
compound,measurement,setting,value
"N.N.[Cl][Pt][Cl] [Cisplatin, cisplatin]",effect on activity of p53-RE (in words),[1],enhanced activity of p53C#18 in cells with wild type p53 in a dose-dependent manner
CCc1c2c(nc3ccc(OC(=O)N4CCC(N5CCCCC5)CC4)cc13)-c1cc3c(c(=O)n1C2)COC(=O)[C@]3(O)CC [irinotecan],drug-related toxicity (in words),mouse model,without drug-related toxicity
same,survival in a mouse model (in words),mouse model,prolong survival
"TRAIL: soluble TRAIL, residues 114-281 of the soluble domain of human TRAIL, expressed in E. coli (BIOMOL)",cell viability by MTS (in words),MDA-MB-231 cells,significant TRAIL-dependent reduction of viability; also recorded: biphasic effect
same,cell viability by MTS (in words),CAMA-1 cells,significant TRAIL-dependent reduction of viability
same,sensitivity to TRAIL-induced apoptosis by MTS (in words),HCC 1937 cells [2],completely resistant
same,sensitivity to TRAIL-induced apoptosis by MTS (in words),MCF-7 cells [3],completely resistant
same,increase in Annexin V staining,HCC 1937 cells [4],approximately 17%
same,increase in Annexin V staining,MCF-7 cells [5],approximately 17%
